# Source: patent US11337950B2, “Biologically active cannabidiol analogs” (University of Mississippi, priority 2016, dated 2022)
# Several values for one entry are separate records, joined by “and”; a condition that tells them apart may be missing. Identical values can stand only once.
# Test: Plasma and organ concentrations of CBD and CBD-Mono-VHS after IP administration (Example 22)
# Assay type: in vivo
# Conditions: mice; for CBD Plasma Concentration, AVG. / Total CBD, Brain, AVG. / Total CBD, Kidney, AVG. / Total CBD, Liver, AVG. / Total CBD, Spleen, AVG. / Total CBD, Total, AVG. / CBD Plasma Concentration / Total CBD, Brain / Total CBD, Kidney / Total CBD, Liver / Total CBD, Spleen / Total CBD, Total: IP CBD-Mono-VHS
# Method: CBD-Mono-VHS was administered intraperitoneally to mice at 2 doses (30 μg and 60 μg equivalent of CBD/mouse). Seventy minutes after dosing the animals (3 mice in each dose group), all animals were sacrificed. Blood, as well as organs (liver, spleen, kidney, and brain), were harvested for LC-MS/MS analysis of their content of both CBD and CBD-Mono-VHS.
# Also shown is the concentration of CBD-Mono-VHS in the plasma 70 minutes after dosing.
# [1] = High Dose (60 μg CBD/mouse), 70 Minutes
# [2] = High Dose (60 μg CBD/mouse), 70 Minutes, individual animals
# [3] = Low Dose (30 μg CBD/mouse), 70 Minutes
# [4] = Low Dose (30 μg CBD/mouse), 70 Minutes, individual animals
# [5] = IP, High Dose (60 μg CBD/mouse), 70 Minutes
# [6] = IP, High Dose (60 μg CBD/mouse), 70 Minutes, individual animals, listed as CBD-Mono-Val-Mono-HS
# [7] = IP, Low Dose (30 μg CBD/mouse), 70 Minutes
# [8] = IP, Low Dose (30 μg CBD/mouse), 70 Minutes, individual animals, listed as CBD-Mono-Val-Mono-HS
structure (smiles),measurement,setting,value
"C=C(C)C1CCC(C)=CC1c1c(O)cc(CCCCC)cc1OC(=O)[C@@H](NC(=O)CCC(=O)O)C(C)C (some centres unmarked) [CBD-Mono-VHS, CBD-Mono-Valinate-Mono-Hemisuccinate]","Blood brain barrier passage, in words","IP 30 and 60 μg, 70 minutes",crosses the blood brain barrier
same,"Organ concentrations after IP administration, in words","IP 30 and 60 μg, 70 minutes",high concentrations of the drug in all organs tested in a dose proportional manner
same,"CBD Plasma Concentration, AVG.",[1],0.00 ng/mL
same,"Total CBD, Brain, AVG.",[1],0.95 ng
same,"Total CBD, Kidney, AVG.",[1],11.15 ng
same,"Total CBD, Liver, AVG.",[1],295.11 ng
same,"Total CBD, Spleen, AVG.",[1],64.42 ng
same,"Total CBD, Total, AVG.","High Dose (60 μg CBD/mouse), 70 Minutes, sum of the columns",371.63 ng
same,CBD Plasma Concentration,[2],0.00 ng/mL
same,"Total CBD, Brain",[2],0.00 ng (2×) and 2.86 ng
same,"Total CBD, Kidney",[2],18.50 ng and 14.96 ng and 0.00 ng
same,"Total CBD, Liver",[2],319.91 ng and 195.66 ng and 369.75 ng
same,"Total CBD, Spleen",[2],93.63 ng and 99.63 ng and 0.00 ng
same,"Total CBD, Total","High Dose (60 μg CBD/mouse), 70 Minutes, individual animals, sum of the columns",432.04 ng and 310.25 ng and 372.61 ng
same,"CBD Plasma Concentration, AVG.",[3],0.00 ng/mL
same,"Total CBD, Brain, AVG.",[3],0.00 ng
same,"Total CBD, Kidney, AVG.",[3],2.343 ng
same,"Total CBD, Liver, AVG.",[3],47.62 ng
same,"Total CBD, Spleen, AVG.",[3],9.46 ng
same,"Total CBD, Total, AVG.","Low Dose (30 μg CBD/mouse), 70 Minutes, sum of the columns",59.42 ng
same,CBD Plasma Concentration,[4],0.00 ng/mL
same,"Total CBD, Brain",[4],0.00 ng
same,"Total CBD, Kidney",[4],7.03 ng and 0.00 ng (2×)
same,"Total CBD, Liver",[4],41.82 ng and 19.61 ng and 81.42 ng
same,"Total CBD, Spleen",[4],10.04 ng and 18.35 ng and 0.00 ng
same,"Total CBD, Total","Low Dose (30 μg CBD/mouse), 70 Minutes, individual animals, sum of the columns",58.89 ng and 37.96 ng and 81.42 ng
same,"CBD-Mono-Val-Mono-HS Plasma Concentration, AVG.",[5],210.45 ng/mL
same,"Total CBD-Mono-Val-Mono-HS, Brain, AVG.",[5],63.51 ng
same,"Total CBD-Mono-Val-Mono-HS, Kidney, AVG.",[5],1193.95 ng
same,"Total CBD-Mono-Val-Mono-HS, Liver, AVG.",[5],7558.89 ng
same,"Total CBD-Mono-Val-Mono-HS, Spleen, AVG.",[5],771.76 ng
same,"Total CBD-Mono-Val-Mono-HS, Total, AVG.","IP, High Dose (60 μg CBD/mouse), 70 Minutes, sum of the columns",9798.56 ng
same,CBD-Mono-Val-Mono-HS Plasma Concentration,[6],137.82 ng/mL and 100.53 ng/mL and 393.00 ng/mL
same,"Total CBD-Mono-Val-Mono-HS, Brain",[6],46.59 ng and 42.45 ng and 101.50 ng
same,"Total CBD-Mono-Val-Mono-HS, Kidney",[6],780.57 ng and 248.34 ng and 2552.93 ng
same,"Total CBD-Mono-Val-Mono-HS, Liver",[6],8380.90 ng and 2882.40 ng and 11413.38 ng
same,"Total CBD-Mono-Val-Mono-HS, Spleen",[6],711.31 ng and 477.40 ng and 1126.58 ng
same,"Total CBD-Mono-Val-Mono-HS, Total","IP, High Dose (60 μg CBD/mouse), 70 Minutes, individual animals, sum of the columns, listed as CBD-Mono-Val-Mono-HS",10057.18 ng and 3751.113 ng and 15587.4 ng
same,"CBD-Mono-Val-Mono-HS Plasma Concentration, AVG.",[7],29.10 ng/mL
same,"Total CBD-Mono-Val-Mono-HS, Brain, AVG.",[7],9.18 ng
same,"Total CBD-Mono-Val-Mono-HS, Kidney, AVG.",[7],101.58 ng
same,"Total CBD-Mono-Val-Mono-HS, Liver, AVG.",[7],1170.01 ng
same,"Total CBD-Mono-Val-Mono-HS, Spleen, AVG.",[7],179.54 ng
same,"Total CBD-Mono-Val-Mono-HS, Total, AVG.","IP, Low Dose (30 μg CBD/mouse), 70 Minutes, sum of the columns",1489.42 ng
same,CBD-Mono-Val-Mono-HS Plasma Concentration,[8],32.08 ng/mL and 32.24 ng/mL and 22.97 ng/mL
same,"Total CBD-Mono-Val-Mono-HS, Brain",[8],13.48 ng and 8.26 ng and 5.81 ng
same,"Total CBD-Mono-Val-Mono-HS, Kidney",[8],88.05 ng and 84.14 ng and 132.55 ng
